Measured values reported in patent US20140088306A1, “RADIOACTIVE FLUORINE-LABELED QUINOXALINE COMPOUND” (Nihon Medi-Physics Co., Ltd., priority 2012, published 2014).
Entries after “also recorded” stand apart in the source; their conditions may differ.

Tests used:
[1] = In vivo radioactivity distribution experiment in normal mouse (Example 16); design: species or system ddY mice; conditions: for Radioactivity Amount, Blood / Radioactivity Amount, Bone / Radioactivity Amount, Brain / Radioactivity Amount, Heart / Radioactivity Amount, Intestine / Radioactivity Amount, Kidney / Radioactivity Amount, Liver / Radioactivity Amount, Lung / Radioactivity Amount, Pancreas / Radioactivity Amount, Spleen / Radioactivity Amount, Stomach*: normal ddY mice, tail vein, average for 5 mice (SD)
Experimental: An ethanol (10 μL)-containing saline solution of [^18F]D1 (25.8 kBq) or [^18F]D2 (48.2 kBq) (100 μL) was injected into the tail vein of ddY mice (male, 5-week old). Five mice were used for each group and sacrificed 2, 10, 30, and 60 minutes after administration to remove major organs. The blood and organs were weighed and further measured for radioactivity using a γ counter (Wallac 1470 Wizard 3, from Perkin-Elmer). The percent injected dose per organ was calculated by comparing tissue counts with suitably diluted aliquots of the injected material. The percent injected dose/g of each sample was calculated by comparing sample counts with the counts of the diluted initial dose.

[2] = test system: Aβ plaques; experiment: In vitro autoradiography using postmortem brain section from Alzheimer's disease (Examples 14, 15); format: binding, human (Alzheimer's disease patient); conditions: brain section of Alzheimer's disease patient
Experimental: A postmortem autopsy brain tissue of a patient with Alzheimer's disease identified by postmortem dissection was obtained from Graduate School of Medicine, Kyoto University. The presence and location of senile plaques in the section were confirmed by immunohistochemical staining using an anti-Aβ1-42 antibody. The section was incubated together with [^18F]D1 or [^18F]D2 (0.37 MBq/100 μL) at room temperature for 1 hour. The resultant was immersed in a 50 volume % ethanol aqueous solution (2 minutes×2) and washed with water (2 minutes×2). After drying, the section was exposed to BAS imaging plate (from Fujifilm Corporation) for 1.5 hours. The image of autoradiography was obtained using BAS5000 scanner system (from Fujifilm Corporation).
A postmortem autopsy brain tissue of a patient with Alzheimer's disease identified by postmortem dissection was obtained from Graduate School of Medicine, Kyoto University, and serial sections […] of a paraffin-embedded brain tissue were used. First, they were each incubated with xylene (15 minutes×2), ethanol (1 minute×2), a 90 volume % ethanol aqueous solution (1 minute×2), and a 70 volume % ethanol aqueous solution (1 minute×1) in that order to perfectly perform deparaffinization, and then washed in water (2.5 minutes×2). Thereafter, for antibody recovery, the section was subjected to autoclave treatment for 15 minutes in 0.01 mol/L citrate buffer solution (pH 6.0). The resultant was incubated in PBS-Tween20 (5 minutes×2), and, for antibody recovery, incubated in a 90 volume % formic acid aqueous solution at room temperature for 5 minutes. The section was washed for 5 minutes with flowing tap water, and then incubated in PBS-Tween20 (2 minutes×1). The section was incubated with a mouse anti-Aβ1-42 monoclonal primary antibody (from Wako Pure Chemical Industries Ltd.) at room temperature overnight. The resultant was incubated in PBS-Tween20 (5 minutes×3) and then incubated together with biotin goat anti-mouse IgG (from Funakoshi Co., Ltd.) at room temperature for 1 hour. […]

Question: Which “Radioactivity Amount, Blood” value ([1]; 2 min. after) does the source give for “4-(6-(2-[^18F]Fluoroethoxy)quinoxalin-2-yl)-N-methylaniline [[^18F]D2]” here?
Answer: 3.91 (0.22) % injected dose/g

Question: What about the “Radioactivity Amount, Blood” value ([1]; 10 min. after) of the same molecule?
Answer: 3.35 (0.43) % injected dose/g

Question: And the “Radioactivity Amount, Blood” value ([1]; 30 min. after)?
Answer: 3.83 (0.18) % injected dose/g

Question: What about the “Radioactivity Amount, Blood” value ([1]; 60 min. after) of the same molecule?
Answer: 4.15 (0.31) % injected dose/g

Question: What about the “Radioactivity Amount, Bone” value ([1]; 2 min. after) of the same molecule?
Answer: 2.81 (0.52) % injected dose/g

Question: And the “Radioactivity Amount, Bone” value ([1]; 10 min. after)?
Answer: 2.12 (0.11) % injected dose/g

Question: And the “Radioactivity Amount, Bone” value ([1]; 30 min. after)?
Answer: 2.86 (0.45) % injected dose/g

Question: And the “Radioactivity Amount, Bone” value ([1]; 60 min. after)?
Answer: 4.26 (0.29) % injected dose/g

Question: And the “Radioactivity Amount, Brain” value ([1]; 2 min. after)?
Answer: 6.19 (0.30) % injected dose/g

Question: What about the “Radioactivity Amount, Brain” value ([1]; 10 min. after) of the same molecule?
Answer: 5.11 (0.28) % injected dose/g

Question: And the “Radioactivity Amount, Brain” value ([1]; 30 min. after)?
Answer: 2.73 (0.16) % injected dose/g

Question: And the “Radioactivity Amount, Brain” value ([1]; 60 min. after)?
Answer: 2.41 (0.12) % injected dose/g

Question: And the “Radioactivity Amount, Heart” value ([1]; 2 min. after)?
Answer: 6.12 (0.45) % injected dose/g

Question: What about the “Radioactivity Amount, Heart” value ([1]; 10 min. after) of the same molecule?
Answer: 3.93 (0.40) % injected dose/g

Question: And the “Radioactivity Amount, Heart” value ([1]; 30 min. after)?
Answer: 3.20 (0.32) % injected dose/g

Question: And the “Radioactivity Amount, Heart” value ([1]; 60 min. after)?
Answer: 3.80 (0.22) % injected dose/g

Question: And the “Radioactivity Amount, Intestine” value ([1]; 2 min. after)?
Answer: 3.40 (0.34) % injected dose/g

Question: And the “Radioactivity Amount, Intestine” value ([1]; 10 min. after)?
Answer: 8.06 (0.95) % injected dose/g

Question: What about the “Radioactivity Amount, Intestine” value ([1]; 30 min. after) of the same molecule?
Answer: 12.13 (2.05) % injected dose/g

Question: And the “Radioactivity Amount, Intestine” value ([1]; 60 min. after)?
Answer: 13.37 (1.03) % injected dose/g

Question: And the “Radioactivity Amount, Kidney” value ([1]; 2 min. after)?
Answer: 9.86 (0.77) % injected dose/g

Question: What about the “Radioactivity Amount, Kidney” value ([1]; 10 min. after) of the same molecule?
Answer: 6.40 (0.62) % injected dose/g

Question: And the “Radioactivity Amount, Kidney” value ([1]; 30 min. after)?
Answer: 4.14 (0.31) % injected dose/g

Question: What about the “Radioactivity Amount, Kidney” value ([1]; 60 min. after) of the same molecule?
Answer: 3.08 (0.21) % injected dose/g

Question: What about the “Radioactivity Amount, Liver” value ([1]; 2 min. after) of the same molecule?
Answer: 8.81 (1.00) % injected dose/g

Question: What about the “Radioactivity Amount, Liver” value ([1]; 10 min. after) of the same molecule?
Answer: 9.29 (0.40) % injected dose/g

Question: What about the “Radioactivity Amount, Liver” value ([1]; 30 min. after) of the same molecule?
Answer: 7.07 (0.19) % injected dose/g

Question: And the “Radioactivity Amount, Liver” value ([1]; 60 min. after)?
Answer: 6.10 (0.41) % injected dose/g

Question: What about the “Radioactivity Amount, Lung” value ([1]; 2 min. after) of the same molecule?
Answer: 8.13 (1.13) % injected dose/g

Question: And the “Radioactivity Amount, Lung” value ([1]; 10 min. after)?
Answer: 5.10(0.74) % injected dose/g

Question: And the “Radioactivity Amount, Lung” value ([1]; 30 min. after)?
Answer: 3.94 (0.33) % injected dose/g

Question: What about the “Radioactivity Amount, Lung” value ([1]; 60 min. after) of the same molecule?
Answer: 3.92 (0.11) % injected dose/g

Question: What about the “Radioactivity Amount, Pancreas” value ([1]; 2 min. after) of the same molecule?
Answer: 6.47 (0.75) % injected dose/g

Question: And the “Radioactivity Amount, Pancreas” value ([1]; 10 min. after)?
Answer: 3.88 (0.52) % injected dose/g

Question: What about the “Radioactivity Amount, Pancreas” value ([1]; 30 min. after) of the same molecule?
Answer: 2.72 (0.29) % injected dose/g

Question: And the “Radioactivity Amount, Pancreas” value ([1]; 60 min. after)?
Answer: 2.64 (0.34) % injected dose/g

Question: What about the “Radioactivity Amount, Spleen” value ([1]; 2 min. after) of the same molecule?
Answer: 3.14 (0.55) % injected dose/g

Question: What about the “Radioactivity Amount, Spleen” value ([1]; 10 min. after) of the same molecule?
Answer: 3.76 (0.55) % injected dose/g

Question: And the “Radioactivity Amount, Spleen” value ([1]; 30 min. after)?
Answer: 3.07 (0.32) % injected dose/g

Question: What about the “Radioactivity Amount, Spleen” value ([1]; 60 min. after) of the same molecule?
Answer: 2.99 (0.21) % injected dose/g

Question: What about the “Radioactivity Amount, Stomach*” value ([1]; 2 min. after) of the same molecule?
Answer: 1.32 (0.21) % injected dose per organ

Question: And the “Radioactivity Amount, Stomach*” value ([1]; 10 min. after)?
Answer: 1.86 (0.38) % injected dose per organ

Question: What about the “Radioactivity Amount, Stomach*” value ([1]; 30 min. after) of the same molecule?
Answer: 2.44 (0.62) % injected dose per organ

Question: And the “Radioactivity Amount, Stomach*” value ([1]; 60 min. after)?
Answer: 2.00 (0.76) % injected dose per organ

Question: And the “binding to / background in the white matter by autoradiography” value [2]?
Answer: low degree of background in the white matter

Question: And the “labeling of Aβ plaques by autoradiography” value ([2]; 0.37 MBq/100 μL, 1 hour)?
Answer: provided a strong marker for Aβ plaques; also recorded: corresponded to the results of antibody immunohistochemical staining

Question: With `Nc1ccc(-c2cnc3cc(OCC[18F])ccc3n2)cc1` [[^18F]D1, 4-(6-(2-[^18F]Fluoroethoxy)quinoxalin-2-yl)aniline] as the molecule, how does the “Radioactivity Amount, Liver” value ([1]; 2 min. after) read?
Answer: 5.30 (1.33) % injected dose/g

Question: And the “Radioactivity Amount, Liver” value ([1]; 10 min. after)?
Answer: 6.58 (0.47) % injected dose/g

Question: And the “Radioactivity Amount, Liver” value ([1]; 30 min. after)?
Answer: 4.90 (0.29) % injected dose/g

Question: What about the “Radioactivity Amount, Liver” value ([1]; 60 min. after) of the same molecule?
Answer: 4.88 (0.30) % injected dose/g

Question: And the “amount of radioactivity in the brain” value ([1]; mouse, in vivo)?
Answer: 2.41-3.08 % ID/g

Question: And the “binding to / background in the white matter by autoradiography” value [2]?
Answer: high non-specific binding to the white matter
